Assay results taken from paper PMC4138991, “Building a Better Dynasore: The Dyngo Compounds Potently Inhibit Dynamin and Endocytosis” (Traffic (Copenhagen, Denmark), 2013).
Entries after “also recorded” stand apart in the source; their conditions may differ.

Assays:
[1] = test system: Tfn-A594 uptake in U2OS cells; assay: Automated quantitative CME assay: Tfn-A594 uptake; format: cell-based; details: for CME IC50 (μM) / IC50: Tfn-A594 uptake, U2OS, 30-min preincubation, serum-free; for IC50: Homo sapiens, read-out: CME IC50
Method: To determine whether the Dyngo compounds are widespread cell‐permeable and endocytosis inhibitors, CME of fluorescent Tfn was compared in an automated quantitative endocytosis assay in U2OS cells. The assay consisted of over 1200 cells under serum‐free conditions; after preincubation with each analog for 30 min the uptake of fluorescent Tfn was measured. We refer to this endocytosis as non‐neuronal CME to distinguish it from CME of synaptic vesicles in presynaptic terminals of neurons, which is referred to as synaptic vesicle endocytosis (SVE). In these cells, Tfn uptake is presumed to be mediated by dynamin II, because this is the only isoform of dynamin that they express, as determined by western blot (Figure S6). […] There was no apparent correlation between in vitro and in‐cell activity, with potent dynamin‐active compounds like 1a and 14a having no effect on non‐neuronal CME (Table 1). This might be explained by low membrane permeability of these analogs, their cellular metabolism or rapid cellular efflux mechanisms.
Quantitative analysis of the inhibition of Alexa 594‐Tfn endocytosis in U2OS cells was performed on large numbers of serum‐starved cells as described 10. Synaptic vesicle recycling in cultured CGNs was monitored using FM1‐43 as described 57 (see Supporting Information). Dynamin‐independent endocytosis was measured using internalization of CT in NIH3T3 cells (using Tfn as a control) as described previously 58 with minor changes (see Supporting Information). The average number of cells for each data point was ˜1200. IC50 values were calculated using GraphPad Prism 5 and data were expressed as mean ± 95% confidence interval (CI) for three wells and ˜1200 cells.

[2] = biological target: native sheep brain dynamin I (Ovis aries, UniProt A0ACI6PDC7); assay: PS liposome-stimulated (helical) dynamin I GTPase assay (Malachite Green); format: biochemical; details: IC50 with versus without Tween-80
From the text: Recombinant dynamin I was used only for the data in Table 2. The dynamin antibodies were from: Dynamin I—in‐house YF2 antibodies, raised in rabbits against two different synthetic peptides: dynamin I 629‐647 ([…]) and dynamin I 765–778 ([…]), used at 1/2000 dilution, as previously described 53; Dynamin II—Santa Cruz (C‐18, sc‐6400, used at 1/1000) and Dynamin III—Santa Cruz (P‐13, sc‐69472, used at 1/500 dilution).
The Malachite Green colorimetric GTPase assay was as described 10. Dynamin I activity was measured in its SAI activity state or was stimulated by three different methods. As each stimulus activates dynamin to different extents, each assay required different dynamin concentrations. First, maximal dynamin activity was stimulated by sonicated PS liposomes 10. […] Finally, dynamin (500 nM) SAI activity was measured using high concentrations of dynamin, which promote its cooperative self‐assembly into rings (but not helices) 26. […] After the Vmax and Km values were determined, the data were transformed using the Lineweaver–Burke equation, 1/v = 1/Vmax + (Km/Vmax)(1/[S]).

[3] = test system: dynamin; set-up: method as in PMID 19459681; details: read-out: dynamin inhibitor potency; cited from earlier work

native sheep brain dynamin I, sequence (A0ACI6PDC7 entry or part of it): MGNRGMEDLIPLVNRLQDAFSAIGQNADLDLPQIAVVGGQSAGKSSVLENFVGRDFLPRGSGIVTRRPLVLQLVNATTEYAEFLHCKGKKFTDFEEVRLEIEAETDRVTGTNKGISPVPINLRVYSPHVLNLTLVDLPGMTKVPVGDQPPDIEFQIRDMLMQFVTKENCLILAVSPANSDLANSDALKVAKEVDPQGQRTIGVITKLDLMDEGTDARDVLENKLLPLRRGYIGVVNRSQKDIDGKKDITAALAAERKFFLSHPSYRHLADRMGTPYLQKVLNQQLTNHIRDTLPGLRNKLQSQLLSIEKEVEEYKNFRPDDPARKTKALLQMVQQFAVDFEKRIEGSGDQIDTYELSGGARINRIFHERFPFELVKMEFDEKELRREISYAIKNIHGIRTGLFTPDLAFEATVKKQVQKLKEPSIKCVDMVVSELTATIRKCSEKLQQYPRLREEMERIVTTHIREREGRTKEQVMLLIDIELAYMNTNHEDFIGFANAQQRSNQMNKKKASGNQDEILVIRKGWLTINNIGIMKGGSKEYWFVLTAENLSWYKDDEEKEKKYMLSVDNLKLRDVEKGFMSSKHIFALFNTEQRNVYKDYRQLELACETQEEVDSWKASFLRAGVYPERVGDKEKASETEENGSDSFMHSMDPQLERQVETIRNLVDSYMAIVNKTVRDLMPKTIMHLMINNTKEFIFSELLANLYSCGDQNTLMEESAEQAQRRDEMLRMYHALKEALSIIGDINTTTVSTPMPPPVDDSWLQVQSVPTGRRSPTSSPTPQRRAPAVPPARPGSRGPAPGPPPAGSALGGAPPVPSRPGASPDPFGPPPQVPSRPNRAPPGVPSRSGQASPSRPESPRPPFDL

| Structure (SMILES) | CME IC50 (μM) [1] | IC50 [1] [µM] | also measured |
| --- | --- | --- | --- |
| O=C(N/N=C/c1ccc2nsnc2c1)c1cc2ccccc2cc1O [14a, (E)-N'-(benzo[c][1,2,5]thiadiazol-5-ylmethylene)-3-hydroxy-2-naphthohydrazide] | no effect; also recorded: Not active (n = 4) |  |  |
| O=C(N/N=C/c1cc(O)cc(O)c1)c1cc2ccccc2cc1O [8a, (E)-N'-(3,5-Dihydroxybenzylidene)-3-hydroxy-2-naphthohydrazide] |  | 179 ± 20 |  |
| O=C(NN=Cc1cnc2ccccc2n1)c1cc2ccccc2cc1O [12a, 3-Hydroxynaphthalene-2-carboxylic acid quinoxaline-2-ylmethylenehydrazide] | Not active (n = 2) |  |  |
| Cc1[nH]c2ccccc2c1/C=N/NC(=O)c1cc2ccccc2cc1O [11a, (E)-3-hydroxy-N'-((2-methyl-1H-indol-3-yl)methylene)-2-naphthohydrazide] |  | 63.4 ± 4.4 |  |
| CC(=O)Nc1ccc(/C=N/NC(=O)c2cc3ccccc3cc2O)cc1 [10a, (E)-N-(4-{[2-(3-hydroxy-2-naphthoyl)hydrazono]methyl}phenyl)acetamide] | Not active (n = 2) |  |  |
| O=C(N/N=C/c1cc(O)c(O)c(O)c1)c1cc2ccccc2cc1O [5a, (E)-3-Hydroxy-N'-(3,4,5-trihydroxybenzylidene) -2-naphthohydrazide] |  | 6.2 ± 2 | times more potent than dynasore in CME assay ([1]; same conditions, U2OS Tfn uptake): six times more potent |
| O=C(N/N=C/c1ccc2nonc2c1)c1cc2ccccc2cc1O [13a, (E)-N'-(benzo[c][1,2,5]oxadiazol-5-ylmethylene)-3-hydroxy-2-naphthohydrazide] | Not active (n = 3) |  |  |
| O=C(N/N=C/c1ccc(O)cc1O)c1cc2ccccc2cc1O [1a, (E)-N'-(2,4-Dihydroxybenzylidene)-3-hydroxy-2-naphthohydrazide] | little or no effect; also recorded: Not active (n = 3) |  | detergent (Tween) sensitivity: fold potency change on removal of Tween [2]: < 10 fold |
| CCCCCCCCNC(=O)C(C#N)=Cc1cn(CCN(C)C)c2ccccc12 [Dynole 34‐2, 2‐cyano‐3‐(1‐(2‐(dimethylamino)ethyl)‐1H‐indol‐3‐yl)‐N‐octylacrylamide] |  |  | IC50 [3]: 1.3 ± 0.3 µM |
| O=C(N/N=C/c1ccc(O)c(O)c1O)c1cc2ccccc2cc1O [3a, (E)-3-Hydroxy-N'-(2,3,4-trihydroxybenzylidene) -2-naphthohydrazide] |  | 9.8 ± 1.5 |  |
